Results taken from patent US7772241B2, “Variolin derivatives and their use as antitumor agents” (Pharma Mar S.A., priority 2001, dated 2010).
Where two headings read alike, the source gives them in different places.

Key:
K-562 = assay: Inhibition of cells growth by colorimetric (SRB) assay, K-562; settings: for GI50 / CC50: Homo sapiens, K562, 48 h
Method in brief: (§1)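 Human tumour cells seeded at 5×10^3/well in RPMI 1640 10% FBS, attached 18 h, then exposed 48 h to samples at 10 to 10^−8 μg/ml in DMSO/EtOH/PBS (0.5:0.5:99). Growth read by SRB staining after TCA fixation, OD 490 nm, triplicate wells; GI, TGI and LC derived.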

A-549 = assay: Inhibition of cells growth by colorimetric (SRB) assay, A-549; settings: for GI50 / CC50: Homo sapiens, A549, 48 h
Method in brief: as §1

SK-MEL-28 = assay: Inhibition of cells growth by colorimetric (SRB) assay, SK-MEL-28; settings: for GI50 / CC50: Homo sapiens, SK-MEL-28, 48 h
Method in brief: as §1

HT-29 = assay: Inhibition of cells growth by colorimetric (SRB) assay, HT-29; settings: for GI50 / CC50: Homo sapiens, HT-29, 48 h
Method in brief: as §1

LoVo = assay: Inhibition of cells growth by colorimetric (SRB) assay, LoVo; settings: for GI50 / CC50: Homo sapiens, LoVo, 48 h
Method in brief: as §1

LoVo-Dox = assay: Inhibition of cells growth by colorimetric (SRB) assay, LoVo-Dox; settings: for GI50 / CC50: Homo sapiens, 48 h
Method in brief: as §1

DU-145 = assay: Inhibition of cells growth by colorimetric (SRB) assay, DU-145; settings: for GI50 / CC50: Homo sapiens, DU-145, 48 h
Method in brief: as §1

LNCaP = assay: Inhibition of cells growth by colorimetric (SRB) assay, LNCaP; settings: for GI50 / CC50: Homo sapiens, LNCaP, 48 h
Method in brief: as §1

SK-BR-3 = assay: Inhibition of cells growth by colorimetric (SRB) assay, SK-BR-3; settings: for GI50 / CC50: Homo sapiens, SK-BR-3, 48 h
Method in brief: as §1

IGROV-1 = assay: Inhibition of cells growth by colorimetric (SRB) assay, IGROV-1; settings: for GI50 / CC50: Homo sapiens, IGROV-1, 48 h
Method in brief: as §1

SK-OV-3 = assay: Inhibition of cells growth by colorimetric (SRB) assay, SK-OV-3
Method in brief: as §1

HeLa = assay: Inhibition of cells growth by colorimetric (SRB) assay, HeLa; for HELA TGI: unit not given here
Method in brief: as §1

HeLa-APL = assay: Inhibition of cells growth by colorimetric (SRB) assay, HeLa-APL
Method in brief: as §1

PANC-1 = assay: Inhibition of cells growth by colorimetric (SRB) assay, PANC-1; settings: for GI50 / CC50: Homo sapiens, PANC-1, 48 h
Method in brief: as §1

Which GI50 (K-562; read-out: GI50 K-562, SRB assay, 48 hours exposure) does the source give for CSc1nccc(-c2c3cccnc3n3c(N(C(C)=O)C(C)=O)nccc23)n1 [Compound 26] here?
Its GI50 is 2.8 µM.

And the GI50 (K-562; read-out: K-562 GI50, SRB assay, 48 hours exposure)?
Its GI50 is 6.29 µM.

What about the CC50 (K-562; read-out: K-562 LC50, SRB assay, 48 hours exposure) of the same molecule?
The CC50 was 18.1 µM.

And the CC50 (K-562; read-out: LC50 K-562, SRB assay, 48 hours exposure)?
The CC50 was 23.4 µM.

What about the “K-562 TGI” value (K-562; SRB assay, 48 hours exposure) of the same molecule?
The value was 1.07E−05.

And the “TGI K-562” value (K-562; SRB assay, 48 hours exposure)?
The value was 8.10E−06.

What about the GI50 (A-549; read-out: A-549 GI50, SRB assay, 48 hours exposure) of the same molecule?
The GI50 was 6.88 µM.

What about the CC50 (A-549; read-out: A-549 LC50, SRB assay, 48 hours exposure) of the same molecule?
The CC50 was 21.5 µM.

What about the GI50 (A-549; read-out: GI50 A-549, SRB assay, 48 hours exposure) of the same molecule?
The GI50 was 0.706 µM.

And the CC50 (A-549; read-out: LC50 A-549, SRB assay, 48 hours exposure)?
Its CC50 is 16.5 µM.

What about the “A-549 TGI” value (A-549; SRB assay, 48 hours exposure) of the same molecule?
The value was 1.22E−05.

And the “TGI A-549” value (A-549; SRB assay, 48 hours exposure)?
The value was 2.93E−06.

What about the GI50 (SK-MEL-28; read-out: GI50 MEL-28, SRB assay, 48 hours exposure) of the same molecule?
The GI50 was 273 nM.

What about the CC50 (SK-MEL-28; read-out: LC50 MEL-28, SRB assay, 48 hours exposure) of the same molecule?
The CC50 was 10.1 µM.

And the GI50 (SK-MEL-28; read-out: MEL-28 GI50, SRB assay, 48 hours exposure)?
The GI50 was 202 nM.

What about the CC50 (SK-MEL-28; read-out: MEL-28 LC50, SRB assay, 48 hours exposure) of the same molecule?
The CC50 was 1.29 µM.

And the “MEL-28 TGI” value (SK-MEL-28; SRB assay, 48 hours exposure)?
Its value is 5.38E−07.

What about the “TGI MEL-28” value (SK-MEL-28; SRB assay, 48 hours exposure) of the same molecule?
Its value is 2.88E−06.

What about the GI50 (HT-29; read-out: GI50 HT-29, SRB assay, 48 hours exposure) of the same molecule?
The GI50 was 935 nM.

And the GI50 (HT-29; read-out: HT-29 GI50, SRB assay, 48 hours exposure)?
Its GI50 is 1050 nM.

What about the CC50 (HT-29; read-out: HT-29 LC50, SRB assay, 48 hours exposure) of the same molecule?
The CC50 was 24.6 µM.

And the CC50 (HT-29; read-out: LC50 HT-29, SRB assay, 48 hours exposure)?
Its CC50 is 25.5 µM.

And the “HT-29 TGI” value (HT-29; SRB assay, 48 hours exposure)?
The value was 3.47E−06.

What about the “TGI HT-29” value (HT-29; SRB assay, 48 hours exposure) of the same molecule?
The value was 3.36E−06.

And the GI50 (LoVo; read-out: GI50 LOVO, SRB assay, 48 hours exposure)?
The GI50 was 415 nM.

What about the CC50 (LoVo; read-out: LC50 LOVO, SRB assay, 48 hours exposure) of the same molecule?
Its CC50 is 13.4 µM.

What about the GI50 (LoVo; read-out: LOVO GI50, SRB assay, 48 hours exposure) of the same molecule?
The GI50 was 525 nM.

And the CC50 (LoVo; read-out: LOVO LC50, SRB assay, 48 hours exposure)?
The CC50 was 2.03 µM.

And the “LOVO TGI” value (LoVo; SRB assay, 48 hours exposure)?
Its value is 1.03E−06.

And the “TGI LOVO” value (LoVo; SRB assay, 48 hours exposure)?
The value was 1.87E−06.

What about the GI50 (LoVo-Dox; read-out: GI50 LOVO-DOX, SRB assay, 48 hours exposure) of the same molecule?
The GI50 was 1.79 µM.

What about the CC50 (LoVo-Dox; read-out: LC50 LOVO-DOX, SRB assay, 48 hours exposure) of the same molecule?
Its CC50 is 25.5 µM.

And the GI50 (LoVo-Dox; read-out: LOVO-DOX GI50, SRB assay, 48 hours exposure)?
The GI50 was 6.09 µM.

What about the CC50 (LoVo-Dox; read-out: LOVO-DOX LC50, SRB assay, 48 hours exposure) of the same molecule?
Its CC50 is 19 µM.

And the “LOVO-DOX TGI” value (LoVo-Dox; SRB assay, 48 hours exposure)?
Its value is 1.08E−06.

What about the “TGI LOVO-DOX” value (LoVo-Dox; SRB assay, 48 hours exposure) of the same molecule?
Its value is 1.10E−05.

What about the GI50 (DU-145; read-out: DU-145 GI50, SRB assay, 48 hours exposure) of the same molecule?
Its GI50 is 4480 nM.

And the CC50 (DU-145; read-out: DU-145 LC50, SRB assay, 48 hours exposure)?
Its CC50 is 18 µM.

What about the GI50 (DU-145; read-out: GI50 DU-145, SRB assay, 48 hours exposure) of the same molecule?
The GI50 was 581 nM.

And the CC50 (DU-145; read-out: LC50 DU-145, SRB assay, 48 hours exposure)?
Its CC50 is 14.9 µM.

What about the “DU-145 TGI” value (DU-145; SRB assay, 48 hours exposure) of the same molecule?
Its value is 8.99E−06.

And the “TGI DU-145” value (DU-145; SRB assay, 48 hours exposure)?
The value was 2.10E−06.

What about the GI50 (LNCaP; read-out: GI50 LN-caP, SRB assay, 48 hours exposure) of the same molecule?
The GI50 was 703 nM.

And the CC50 (LNCaP; read-out: LC50 LN-caP, SRB assay, 48 hours exposure)?
The CC50 was 2.28 µM.

What about the GI50 (LNCaP; read-out: LN-caP GI50, SRB assay, 48 hours exposure) of the same molecule?
Its GI50 is 4510 nM.

And the CC50 (LNCaP; read-out: LN-caP LC50, SRB assay, 48 hours exposure)?
The CC50 was 17.5 µM.

And the “LN-caP TGI” value (LNCaP; SRB assay, 48 hours exposure)?
The value was 8.89E−06.

And the “TGI LN-caP” value (LNCaP; SRB assay, 48 hours exposure)?
The value was 1.27E−06.

And the GI50 (SK-BR-3; read-out: GI50 SK-BR-3, SRB assay, 48 hours exposure)?
The GI50 was 278 nM.

And the CC50 (SK-BR-3; read-out: LC50 SK-BR-3, SRB assay, 48 hours exposure)?
Its CC50 is 2.53 µM.

What about the GI50 (SK-BR-3; read-out: SK-BR-3 GI50, SRB assay, 48 hours exposure) of the same molecule?
Its GI50 is 4180 nM.

What about the CC50 (SK-BR-3; read-out: SK-BR-3 LC50, SRB assay, 48 hours exposure) of the same molecule?
The CC50 was 20.7 µM.

What about the “SK-BR-3 TGI” value (SK-BR-3; SRB assay, 48 hours exposure) of the same molecule?
The value was 9.30E−06.

And the “TGI SK-BR-3” value (SK-BR-3; SRB assay, 48 hours exposure)?
The value was 8.38E−07.

And the GI50 (IGROV-1; read-out: GI50 IGROV, SRB assay, 48 hours exposure)?
Its GI50 is 220 nM.

What about the GI50 (IGROV-1; read-out: IGROV GI50, SRB assay, 48 hours exposure) of the same molecule?
Its GI50 is 721 nM.

And the CC50 (IGROV-1; read-out: IGROV LC50, SRB assay, 48 hours exposure)?
Its CC50 is 9.25 µM.

What about the CC50 (IGROV-1; read-out: LC50 IGROV, SRB assay, 48 hours exposure) of the same molecule?
The CC50 was 9.17 µM.

What about the “IGROV TGI” value (IGROV-1; SRB assay, 48 hours exposure) of the same molecule?
The value was 1.58E−07.

And the “TGI IGROV” value (IGROV-1; SRB assay, 48 hours exposure)?
The value was 2.73E−06.

What about the GI50 (SK-OV-3; Homo sapiens, SK-OV-3, 48 h, read-out: GI50 SKOV-3, SRB assay, 48 hours exposure) of the same molecule?
The GI50 was 280 nM.

And the CC50 (SK-OV-3; Homo sapiens, SK-OV-3, 48 h, read-out: LC50 SKOV-3, SRB assay, 48 hours exposure)?
Its CC50 is 9.35 µM.

What about the “TGI SKOV-3” value (SK-OV-3; SRB assay, 48 hours exposure) of the same molecule?
Its value is 1.13E−06.

And the GI50 (HeLa; Homo sapiens, HeLa, 48 h, read-out: HELA GI50, SRB assay, 48 hours exposure)?
Its GI50 is 1.97 nM.

And the “HELA TGI” value (HeLa; SRB assay, 48 hours exposure)?
The value was 6.91E−09.

And the GI50 (HeLa-APL; Homo sapiens, 48 h, read-out: HELA-APL GI50, SRB assay, 48 hours exposure)?
The GI50 was 1.77 nM.

What about the CC50 (HeLa-APL; Homo sapiens, 48 h, read-out: HELA-APL LC50, SRB assay, 48 hours exposure) of the same molecule?
The CC50 was 227 nM.

What about the “HELA-APL TGI” value (HeLa-APL; SRB assay, 48 hours exposure) of the same molecule?
The value was 8.64E−09.

And the GI50 (PANC-1; read-out: GI50 PANC-1, SRB assay, 48 hours exposure)?
The GI50 was 933 nM.

What about the CC50 (PANC-1; read-out: LC50 PANC-1, SRB assay, 48 hours exposure) of the same molecule?
The CC50 was 21.3 µM.

What about the GI50 (PANC-1; read-out: PANC-1 GI50, SRB assay, 48 hours exposure) of the same molecule?
Its GI50 is 4380 nM.

What about the CC50 (PANC-1; read-out: PANC-1 LC50, SRB assay, 48 hours exposure) of the same molecule?
Its CC50 is 17.6 µM.

And the “PANC-1 TGI” value (PANC-1; SRB assay, 48 hours exposure)?
Its value is 8.79E−06.

And the “TGI PANC-1” value (PANC-1; SRB assay, 48 hours exposure)?
The value was 4.05E−06.
